Molecules are shown by their SMILES.

In one experiment the target is TAAR1 (Mus musculus, UniProt Q923Y8). In words: TAAR1 radioligand binding, membranes of stably transfected HEK293 cells (mouse).
Conditions: not given
An outline of the steps:
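Competition binding on membranes from HEK293 cells stably expressing the TAAR1 species ortholog, in HEPES-NaOH pH 7.0 with 10 mM MgCl2 and 2 mM CaCl2, 30 min at 4° C with [3H]-rac-2-(1,2,3,4-tetrahydro-1-naphthyl)-2-imidazoline. Competitors 10 pM–30 μM, duplicates; non-specific binding with 10 μM unlabelled ligand; filtration and scintillation counting.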
`NC1=N[C@@H](c2ccc(Cl)c(F)c2)CO1` [Example 174, (S)-4-(4-Chloro-3-fluoro-phenyl)-4,5-dihydro-oxazol-2-ylamine] registered a Ki of 0.0006 µM.

The same experiment, now with this note: mouse/rat; cell not marked 'rat'; radioligand [3H]-rac-2-(1,2,3,4-tetrahydro-1-naphthyl)-2-imidazoline, 4° C.; read-out: Ki (μM) mouse/rat.
Take `NC1=N[C@@H](CCc2cccc(C(F)(F)F)c2Cl)CO1` [Example 151, (S)-4-[2-(2-Chloro-3-trifluoromethyl-phenyl)-ethyl]-4,5-dihydro-oxazol-2-ylamine]: the Ki turned out to be 0.001 µM.

Turning to `NC1=N[C@@H](c2cccc(C(F)(F)F)c2)CO1` [Example 153, (S)-4-(3-Trifluoromethyl-phenyl)-4,5-dihydro-oxazol-2-ylamine], the Ki came to 0.0083 µM.

Regarding `CC(Cc1ccccc1)[C@H]1COC(N)=N1` (stereo partly drawn) [Example 154, (S)-4-(1-Methyl-2-phenyl-ethyl)-4,5-dihydro-oxazol-2-ylamine], the Ki turned out to be 0.0034 µM.

Turning to `NC1=N[C@@H](CCc2cc(C(F)(F)F)ccc2F)CO1` [Example 156, (S)-4-[2-(2-Fluoro-5-trifluoromethyl-phenyl)-ethyl]-4,5-dihydro-oxazol-2-ylamine], the Ki was 0.0064 µM.

As to `NC1=N[C@@H](CCc2ccncc2F)CO1` [Example 158, (S)-4-[2-(3-Fluoro-pyridin-4-yl)-ethyl]-4,5-dihydro-oxazol-2-ylamine], the Ki stood at 0.0068 µM.

On to `NC1=N[C@@H](CCc2cc(F)cc(C(F)(F)F)c2)CO1` [Example 159, (S)-4-[2-(3-Fluoro-5-trifluoromethyl-phenyl)-ethyl]-4,5-dihydro-oxazol-2-ylamine], for which the Ki is 0.001 µM.

Take `NC1=N[C@@H](CCc2cc(C(F)(F)F)ccc2C(F)(F)F)CO1` [Example 160, (S)-4-[2-(2,5-Bis-trifluoromethyl-phenyl)-ethyl]-4,5-dihydro-oxazol-2-ylamine]: the Ki was determined as 0.0028 µM.

With `Cc1ccc([C@@]2(C)COC(N)=N2)cc1` [Example 161, (S)-4-Methyl-4-p-tolyl-4,5-dihydro-oxazol-2-ylamine], the Ki was determined as 0.0062 µM.

Turning to `CCC(C[C@H]1COC(N)=N1)c1ccc(Cl)cc1` (stereo partly drawn) [Example 162, (S)-4-[2-(4-Chloro-phenyl)-butyl]-4,5-dihydro-oxazol-2-ylamine], the Ki was found to be 0.0025 µM.

As for `CCC(C[C@H]1COC(N)=N1)c1ccccc1` (stereo partly drawn) [Example 163, (S)-4-(2-Phenyl-butyl)-4,5-dihydro-oxazol-2-ylamine], the Ki turned out to be 0.0037 µM.

Regarding `CC(C[C@H]1COC(N)=N1)c1ccc(C(F)(F)F)cc1` (stereo partly drawn) [Example 165, (S)-4-[2-(4-Trifluoromethyl-phenyl)-propyl]-4,5-dihydro-oxazol-2-ylamine], the Ki is 0.0012 µM.

Turning to `NC1=N[C@@H](c2ccc(F)c(F)c2)CO1` [Example 166, (S)-4-(3,4-Difluoro-phenyl)-4,5-dihydro-oxazol-2-ylamine], the Ki came out at 0.0047 µM.

In the case of `NC1=N[C@@H](c2cccc(Cl)c2Cl)CO1` [Example 168, (S)-4-(2,3-Dichloro-phenyl)-4,5-dihydro-oxazol-2-ylamine], the Ki is 0.0006 µM.

As for `NC1=N[C@@H](c2ccc(Cl)cc2)CO1` [Example 169, (S)-4-(4-Chloro-phenyl)-4,5-dihydro-oxazol-2-ylamine], the Ki was found to be 0.0014 µM.

Turning to `NC1=N[C@@H](c2cc(F)c(F)c(F)c2)CO1` [Example 170, (S)-4-(3,4,5-Trifluoro-phenyl)-4,5-dihydro-oxazol-2-ylamine], the Ki was 0.0011 µM.

On to `NC1=N[C@@H](c2ccc(F)c(Cl)c2)CO1` [Example 172, (S)-4-(3-chloro-4-fluoro-phenyl)-4,5-dihydro-oxazol-2-ylamine], for which the Ki worked out at 0.0019 µM.

On to `NC1=N[C@@H](c2cc(F)cc(F)c2)CO1` [Example 176, (S)-4-(3,5-Difluoro-phenyl)-4,5-dihydro-oxazol-2-ylamine], for which the Ki is 0.002 µM.

`NC1=N[C@@H](c2cc(F)cc(Cl)c2)CO1` [Example 178, (S)-4-(3-Chloro-5-fluoro-phenyl)-4,5-dihydro-oxazol-2-ylamine]: the Ki worked out at 0.0004 µM.

On to `C[C@]1(c2ccccc2Cl)COC(N)=N1` [Example 180, (S)-4-(2-Chloro-phenyl)-4-methyl-4,5-dihydro-oxazol-2-ylamine], for which the Ki was 0.0088 µM.

Turning to `CCC(C[C@H]1COC(N)=N1)c1ccc(C(F)(F)F)cc1` (stereo partly drawn) [Example 184, (S)-4-[2-(4-Trifluoromethyl-phenyl)-butyl]-4,5-dihydro-oxazol-2-ylamine], the Ki was 0.0063 µM.

For the compound `C[C@]1(c2cc(F)ccc2F)COC(N)=N1` [Example 187, (S)-4-(2,5-Difluoro-phenyl)-4-methyl-4,5-dihydro-oxazol-2-ylamine], the Ki amounted to 0.0021 µM.

Take `NC1=N[C@@H](c2cc(Cl)ccc2F)CO1` [Example 190, (+)-(S)-4-(5-Chloro-2-fluoro-phenyl)-4,5-dihydro-oxazol-2-ylamine]: the Ki came out at 0.0008 µM.

With `NC1=N[C@@H](c2cccc(Cl)c2)CO1` [Example 192, (+)-(S)-4-(3-Chloro-phenyl)-4,5-dihydro-oxazol-2-ylamine], the Ki came out at 0.0019 µM.

Take `CC(C[C@H]1COC(N)=N1)c1cccc(C(F)(F)F)c1` (stereo partly drawn) [Example 193, (S)-4-[2-(3-Trifluoromethyl-phenyl)-propyl]-4,5-dihydro-oxazol-2-ylamine]: the Ki is 0.0043 µM.

Regarding `CCC(C[C@H]1COC(N)=N1)c1cccc(C(F)(F)F)c1` (stereo partly drawn) [Example 194, (S)-4-[2-(3-Trifluoromethyl-phenyl)-butyl]-4,5-dihydro-oxazol-2-ylamine], the Ki was 0.0073 µM.

Consider `NC1=N[C@@H](CSc2ccccc2)CO1` [Example 195, (R)-4-Phenylsulfanylmethyl-4,5-dihydro-oxazol-2-ylamine], for which the Ki is 0.0018 µM.

Regarding `C[C@@]1(c2ccccc2F)COC(N)=N1` [Example 196, (R)-4-(2-Fluoro-phenyl)-4-methyl-4,5-dihydro-oxazol-2-ylamine], the Ki came out at 0.0066 µM.

`NC1=N[C@@H](c2cccc(Br)c2)CO1` [Example 198, (+)-(S)-4-(3-Bromo-phenyl)-4,5-dihydro-oxazol-2-ylamine]: the Ki amounted to 0.002 µM.

On to `NC1=N[C@@H](c2cc(Cl)cc(Cl)c2)CO1` [Example 201, (+)-(S)-4-(3,5-Dichloro-phenyl)-4,5-dihydro-oxazol-2-ylamine], for which the Ki came to 0.0002 µM.

Consider `CC(C[C@H]1COC(N)=N1)c1cc(F)cc(F)c1` (stereo partly drawn) [Example 202, (S)-4-[2-(3,5-Difluoro-phenyl)-propyl]-4,5-dihydro-oxazol-2-ylamine], for which the Ki was 0.0017 µM.

Take `CCC(C[C@H]1COC(N)=N1)c1cc(F)cc(F)c1` (stereo partly drawn) [Example 203, (S)-4-[2-(3,5-Difluoro-phenyl)-butyl]-4,5-dihydro-oxazol-2-ylamine]: the Ki came out at 0.0039 µM.

For the compound `C[C@]1(c2ccc(F)cc2F)COC(N)=N1` [Example 206, (S)-4-(2,4-Difluoro-phenyl)-4-methyl-4,5-dihydro-oxazol-2-ylamine], the Ki came to 0.0032 µM.

As to `CCC(C[C@H]1COC(N)=N1)c1ccc(F)cc1` (stereo partly drawn) [Example 210, (S)-4-[2-(4-Fluoro-phenyl)-butyl]-4,5-dihydro-oxazol-2-ylamine], the Ki was determined as 0.0014 µM.

With `CCC(C[C@H]1COC(N)=N1)c1ccc(F)c(F)c1` (stereo partly drawn) [Example 211, (S)-4-[2-(3,4-Difluoro-phenyl)-butyl]-4,5-dihydro-oxazol-2-ylamine], the Ki worked out at 0.0024 µM.

In the case of `NC1=N[C@@H](CCc2cccc(C(F)(F)F)n2)CO1` [Example 212, (S)-4-[2-(6-Trifluoromethyl-pyridin-2-yl)-ethyl]-4,5-dihydro-oxazol-2-ylamine], the Ki was 0.0068 µM.

Source of the values: patent US8604061B2, “2-aminooxazolines as TAAR1 ligands” (Hoffmann-La Roche Inc., priority 2007, dated 2013).
